Measured values taken from ChEMBL document CHEMBL3853354, “Structure-activity relationships of proline modifications around the tetracyclic-indole class of NS5A inhibitors” (Bioorg Med Chem Lett, 2016).

Legend:
[1] = system: Hepatitis C virus subtype 1a; experiment: Inhibition of NS5A in HCV genotype 1a assessed as reduction in replicon RNA level after 3 days by cell based RT-PCR method
[2] = system: Nonstructural protein 5A (Hepatitis C virus), Q5L478 [UNDEFINED MUTATION]; experiment: Inhibition of NS5A L31V mutant in HCV genotype 1a assessed as reduction in replicon RNA level after 3 days by cell based RT-PCR method; conditions: Hepatitis C virus subtype 1a
[3] = system: T1, Nonstructural protein 5A (Hepatitis C virus), Q5L478 [Y93H]; experiment: Inhibition of NS5A Y93H mutant in HCV genotype 1a assessed as reduction in replicon RNA level after 3 days by cell based RT-PCR method; conditions: Hepatitis C virus subtype 1a
T1 sequence (whole entry): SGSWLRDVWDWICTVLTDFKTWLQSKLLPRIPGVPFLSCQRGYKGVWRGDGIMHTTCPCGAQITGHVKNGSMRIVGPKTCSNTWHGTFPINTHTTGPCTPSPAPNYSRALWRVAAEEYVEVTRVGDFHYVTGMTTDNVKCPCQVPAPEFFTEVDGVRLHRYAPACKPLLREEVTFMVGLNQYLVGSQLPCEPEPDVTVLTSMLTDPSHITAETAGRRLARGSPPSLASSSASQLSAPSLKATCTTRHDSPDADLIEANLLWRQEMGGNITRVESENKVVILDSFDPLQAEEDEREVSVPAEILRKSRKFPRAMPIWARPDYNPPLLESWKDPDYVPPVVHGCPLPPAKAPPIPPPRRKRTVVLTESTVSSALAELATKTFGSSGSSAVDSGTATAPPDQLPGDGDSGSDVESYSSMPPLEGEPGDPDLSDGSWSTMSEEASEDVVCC

[4] = system: Hepatitis C virus subtype 2b; experiment: Inhibition of NS5A in HCV genotype 2b assessed as reduction in replicon RNA level after 3 days by cell based RT-PCR method
[5] = system: Hepatitis C virus subtype 1a; experiment: Selectivity ratio of EC90 for NS5A L31V mutant in HCV genotype 1a to EC90 for NS5A in HCV genotype 1a
[6] = system: Hepatitis C virus subtype 1a; experiment: Selectivity ratio of EC90 for NS5A Y93H mutant in HCV genotype 1a to EC90 for NS5A in HCV genotype 1a
[7] = Selectivity ratio of EC90 for NS5A in HCV genotype 2b to EC90 for NS5A in HCV genotype 1a
[8] = system: Hepatitis C virus subtype 3a; experiment: Inhibition of NS5A in HCV genotype 3a assessed as reduction in replicon RNA level after 3 days by cell based RT-PCR method
[9] = Half life in rat at 2 mg/kg, iv; format: ADME, organism-based; conditions: in vivo
[10] = Clearance in rat at 2 mg/kg, iv; format: ADME, organism-based; conditions: in vivo
[11] = AUC in rat at 10 mg/kg, po; format: ADME, organism-based; conditions: in vivo
[12] = Cmax in rat at 10 mg/kg, po; format: ADME, organism-based; design: dose 10 mg/kg, route oral; conditions: in vivo
[13] = Oral bioavailability in rat at 10 mg/kg; format: ADME, organism-based; conditions: in vivo

Row | SMILES | EC90 [1] | EC90 [2] | EC90 [3] | EC90 [4] | Selectivity ratio [5] | Selectivity ratio [6] | Selectivity ratio [7] | EC90 [8] | half-life [9] | clearance [10] | AUC [11] | Cmax [12] | bioavailability [13]
1 | COC(=O)N[C@H](C(=O)N1CCC[C@H]1c1ncc(-c2cc(F)c3c(c2)OC(c2ccc4c(c2)OCCC4)n2c-3cc3cc(-c4cnc([C@@H]5CCCN5C(=O)[C@@H](NC(=O)OC)C(C)C)[nH]4)ccc32)[nH]1)C(C)C (stereo partly drawn) | 0.003 nM | 0.0025 nM | 0.48 nM | 0.31 nM | 1 | 160 | 103 |  |  |  |  |  | 
2 | COC(=O)N[C@H](C(=O)N1CCC[C@H]1c1ncc(-c2cc(F)c3c(c2)OC(c2cccc(OC)c2)n2c-3cc3cc(-c4cnc([C@@H]5CCCN5C(=O)[C@@H](NC(=O)OC)C(C)C)[nH]4)ccc32)[nH]1)C(C)C (stereo partly drawn) | 0.01 nM |  |  | 5.72 nM | 20 | 230 | 570 | 0.07 nM |  |  |  |  | 
3 | COC(=O)N[C@H](C(=O)N1CCC[C@H]1c1ncc(-c2ccc3c(c2)cc2n3C(c3cccc(OC)c3)Oc3cc(-c4cnc([C@@H]5C[C@@H](F)CN5C(=O)[C@@H](NC(=O)OC)C(C)C)[nH]4)ccc3-2)[nH]1)C(C)C (stereo partly drawn) | < 0.02 nM | 0.81 nM | 19.8 nM | 60.8 nM | > 41 | > 990 | > 3040 |  |  |  |  |  | 
4 | COC(=O)N[C@H](C(=O)N1CCC[C@H]1c1ncc(-c2cc(F)c3c(c2)OC(c2ccccc2)n2c-3cc3cc(-c4cnc([C@@H]5C[C@H]6C[C@H]6N5C(=O)[C@@H](NC(=O)OC)C(C)C)[nH]4)ccc32)[nH]1)C(C)C (stereo partly drawn) | 0.016 nM | 0.42 nM | 3.17 nM | 16.3 nM | 26 | 200 | 1000 |  |  |  |  |  | 
5 | COC(=O)N[C@H](C(=O)N1CCC[C@H]1c1ncc(-c2cc(F)c3c(c2)OC(c2ccc4c(c2)OCCC4)n2c-3cc3cc(-c4cnc([C@@H]5C[C@H]6C[C@H]6N5C(=O)[C@@H](NC(=O)OC)C(C)C)[nH]4)ccc32)[nH]1)C(C)C (stereo partly drawn) | 0.004 nM | 0.007 nM | 0.12 nM | 0.38 nM | 2 | 30 | 95 |  | 4.6 h | 11.4 mL/min/kg | 0.63 µM·h | 73 nM | 4%
6 | COC(=O)N[C@H](C(=O)N1CCC[C@H]1c1ncc(-c2ccc3c(c2)cc2n3C(c3ccccc3)Oc3cc(-c4cnc([C@@H]5C[C@@H](F)CN5C(=O)[C@@H](NC(=O)OC)C(C)C)[nH]4)cc(F)c3-2)[nH]1)C(C)C (stereo partly drawn) | 0.006 nM | 2.17 nM | 1.4 nM | 63.6 nM | 362 | 233 | 10600 |  |  |  |  |  | 
7 | COC(=O)N[C@H](C(=O)N1CCC[C@H]1c1ncc(-c2ccc3c(c2)OC(c2cccc(OC)c2)n2c-3cc3cc(-c4cnc([C@@H]5C[C@H]6C[C@H]6N5C(=O)[C@@H](NC(=O)OC)C(C)C)[nH]4)ccc32)[nH]1)C(C)C (stereo partly drawn) | 0.013 nM | 0.13 nM | 6.45 nM | 4.66 nM | 10 | 500 | 360 |  | 4.7 h | 6 mL/min/kg | 3.64 µM·h | 630 nM | 13%
